Results on one compound are retold here after patent US11230542B2, “Inhibitors of integrated stress response pathway” (Praxis Biotech LLC, priority 2017, dated 2022).

The subject of one test is ATF4. Put plainly: ATF4 expression inhibition assay (thapsigargin-stressed HEK293T cells, western blot). The test is classed as cell-based. The settings on record: Homo sapiens, HEK-293T. In a few lines:
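HEK293T cells treated with thapsigargin (Tg) plus test compound (100 nM or 1 μM) for 3 hours, then lysed; ATF4 measured by western blot with ECL and densitometry. % inhibition normalized to Tg alone (0%) and untreated cells (100%); IC50 also calculated.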
On the technique in general: A western blot detects proteins with antibodies after separation by electrophoresis.

A further test relates to fasted Balb/c mice. Nature of the test: Fasting-induced muscle atrophy. The test is classed as in vivo, mouse. The settings on record: 10 mg/kg oral. The method, then: Wild type eight-weeks-old male Balb/c mice obtained from the vivarium Fundacion Ciencia & Vida Chile (Santiago, Chile) were used. Mice were housed in independent plastic cages in a room maintained at 25° C. with a 12-h:12-h light:dark cycle.
Twenty-four hours before and during the 2 days of fasted procedures, animals received oral administration via feeding tubes (15 gauge) of vehicle (50% Polyethylene glycol 400 (Sigma-Aldrich P3265) in distilled water or 10 mg/kg of compound 3 formulated in vehicle solution.
After 2 days of fasting the animals were sacrificed and muscles were removed from both hindlimbs. Mice with feed and water ad libitum were used as control.
For in vivo measurements of protein synthesis, puromycin (Sigma-Aldrich, P8833) was prepared at 0.04 μmol/g body weight in a volume of 200 μL of PBS, and subsequently administered into the animals via IP injection, 30 min prior to muscle collection.
(§1) Upon collection, muscles were immediately frozen in liquid nitrogen and then stored at −80° C. […] Protein concentration in supernatants was determined using BCA Protein Assay Kit (Pierce). […]
Puromycin (12D10) (Merck Millipore) and β-actin (Sigma-Aldrich) antibodies were used as primary antibodies. […] Quantification of protein bands was done by densitometry using ImageJ software. […]

In test [1] the test system is Balb/c mice injected with CT26 colon carcinoma cell line. Put plainly: Cachexia-induced muscle atrophy (CT26 tumor cells). The settings on record: 10 mg/kg daily oral gavage for 13 days. The test is classed as in vivo, mouse. The method, then:
Wild type six-weeks-old male Balb/c mice obtained from the vivarium Fundacion Ciencia & Vida Chile (Santiago, Chile) were used. Mice were housed in independent plastic cages in a room maintained at 25° C. with a 12-h:12-h light:dark cycle.
1×10^6 CT26 colon carcinoma cell line (ATCC #CRL-2638, ATCC Manassas, Va.) were injected subcutaneously in the right lower flank of each animal for induction of cachexia-induced muscle atrophy as described (Nat Commun. 2012 Jun. 12; 3:896). Non-injected animals were used as controls. At day 6 post tumor-cell injection, animals were randomized into two groups and treated with 10 mg/kg of compound 3 formulated in 50% Polyethylene glycol (PEG-400) in distilled water, or with vehicle (50% PEG-400 in distilled water) by daily oral gavage for 13 days.
For in vivo measurements of protein synthesis, 30 min before the study ends, animals were injected intraperitoneally with puromycin (Sigma-Aldrich, P8833) at 0.04 μmol/g body weight in a volume of 200 μL of PBS. […]
as §1
Puromycin (12D10) (Merck Millipore) and β-actin (Sigma-Aldrich) antibodies were used as primary antibodies. […] Quantification of protein bands was done by densitometry using ImageJ software.

Take `O=C(COc1ccc(Cl)cc1)N[C@H]1CC[C@H](NC[C@@H](O)COc2ccc(Cl)cc2)CC1` (single isomer, unassigned) [Compound 3, (+)-2-(4-chlorophenoxy)-N-(4-((3-(4-chlorophenoxy)-2-hydroxypropyl)amino)cyclohexyl)acetamide]: 145 nM corresponded to half-maximal inhibition in the test with ATF4 (3 h with 100 nM Tg, test compound 1 nM to 1 μM) (IC50). The inhibition at 0.1 µM in the test with ATF4 (3 h with 100 nM thapsigargin (Tg) and 100 nM test compound, Tg alone 0%, untreated 100%) was found to be 35%. The same compound returned an inhibition at 1 µM in the test with ATF4 (3 h with 100 nM thapsigargin (Tg) and 1 μM test compound, Tg alone 0%, untreated 100%) of 77%. Besides, in the test on fasted Balb/c mice, the “protein synthesis, puromycin staining in muscle fiber CSA” value is “partial recovery of protein synthesis”. Further, the “muscle weight (gastrocnemius, quadriceps, tibialis anterior)” value in test [1] was “prevented the CT26-induced muscle weight loss”. For the same compound, the “protein synthesis in muscle” value in test [1] (quadriceps and tibialis anterior, versus vehicle) was “significantly increase protein synthesis”.

As usually defined, the IC50 is the concentration needed to halve the response being measured. A higher IC50 goes with weaker potency in that assay. A word on the inhibition: it is the change of the read-out against control, counted positive when it falls. A higher inhibition goes with a response far below the control.
